The test system of the first assay is HBV rcDNA. Description: HepDE19 assay with bDNA quantitation of HBV rcDNA. The assay is classed as cell-based, hepatitis B virus. To be noted: HepDE19 assay, inhibition of formation of rcDNA; read-out: DE-19bDNA EC50. In outline:
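HepDE19 cells (HepG2-derived, Tet-regulated HBV replication) were deprived of tetracycline and then exposed to compounds for 7 days at 37 °C in 0.5% DMSO, 8-point titration from 25 μM. rcDNA was quantified by bDNA and EC50/EC90 came from 4-parameter fits. CC50 was measured by CellTiter-Glo ATP content on replicate plates after 4 days.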
For the molecule `CC(c1c[nH]c(=O)c2ccc(F)cc12)N(C)C(=O)Nc1ccc(F)c(Cl)c1` (single isomer, unassigned) [Compound 169, 3-(3-Chloro-4-fluorophenyl)-1-(1-(6-fluoro-1-oxo-1,2-dihydroisoquinolin-4-yl)ethyl)-1-methylurea], the concentration for a half-maximal effect (EC50) came out at 2.1 µM.

As for `CCNc1ncc(C(C)N(C)C(=O)Nc2ccc(F)c(Cl)c2)c2ccccc12` (single isomer, unassigned) [Compound 240, 3-(3-Chloro-4-fluorophenyl)-1-(1-(1-(ethylamino)isoquinolin-4-yl)ethyl)-1-methylurea], the EC50 was determined as 11.5 µM.

In the case of `CC(c1cnc(OCc2nc[nH]n2)c2ccccc12)N(CCCO)C(=O)Nc1ccc(F)c(Cl)c1` (single isomer, unassigned) [Compound 260, 1-(1-(1-((1H-1,2,4-Triazol-3-yl)methoxy)isoquinolin-4-yl)ethyl)-3-(3-chloro-4-fluorophenyl)-1-(3-hydroxypropyl)urea], the EC50 was determined as 0.019 µM.

As to `CC(c1c[nH]c(=O)c2ccccc12)N(Cc1c[nH]nn1)C(=O)Nc1ccc(F)c(Cl)c1` (single isomer, unassigned) [Compound 267, 1-((2H-1,2,3-Triazol-4-yl)methyl)-3-(3-chloro-4-fluorophenyl)-1-(1-(1-oxo-1,2-dihydroisoquinolin-4-yl)ethyl)urea], the EC50 was 0.35 µM.

Consider `CC(C)CN(C(=O)Nc1ccc(F)c(Cl)c1)C(C)c1c[nH]c(=O)c2ccccc12` (single isomer, unassigned) [Compound 144, 3-(3-chloro-4-fluorophenyl)-1-isobutyl-1-(1-(1-oxo-1,2-dihydroisoquinolin-4-yl)ethyl)urea], for which the concentration for a half-maximal effect (EC50) worked out at 0.01 µM.

`CC(c1cnc(NCCN)c2ccccc12)N(C)C(=O)Nc1ccc(F)c(Cl)c1` (single isomer, unassigned) [Compound 250, 1-(1-(1-((2-Aminoethyl)amino)isoquinolin-4-yl)ethyl)-3-(3-chloro-4-fluorophenyl)-1-methylurea]: the 50% effective concentration (EC50) is 1.5 µM.

For the molecule `CCCCN(C(=O)Nc1ccc(F)c(Cl)c1)C(C)c1cnc(OC)c2ccccc12` (single isomer, unassigned) [Compound 61, 1-Butyl-3-(3-chloro-4-fluorophenyl)-1-(1-(1-methoxyisoquinolin-4-yl)ethyl)urea], the EC50 was determined as 0.08 µM.

As to `CC(c1c[nH]c(=O)c2ccccc12)N(CCCC#N)C(=O)Nc1ccc(F)c(Cl)c1` (single isomer, unassigned) [Compound 115, 3-(3-Chloro-4-fluorophenyl)-1-(3-cyanopropyl)-1-(1-(1-oxo-1,2-dihydroisoquinolin-4-yl)ethyl)urea], the EC50 amounted to 0.01 µM.

In the case of `CCN(C(=O)Nc1ccc(F)c(Cl)c1)C(C)c1c[nH]c(=O)c2ccccc12` (single isomer, unassigned) [Compound 25, 3-(3-Chloro-4-fluorophenyl)-1-ethyl-1-(1-(1-oxo-1,2-dihydroisoquinolin-4-yl)ethyl)urea], the EC50 stood at 0.02 µM.

Still in this assay, the particulars now being: HepDE19 assay, inhibition of formation of relaxed circular DNA (rcDNA), bDNA quantitation; read-out: DE-19bDNA EC50.
For the molecule `CC(C)CN(C(=O)Nc1ccc(F)c(Cl)c1)C(C)c1c[nH]c(=O)c2c(F)cccc12` (single isomer, unassigned) [Compound 361, 3-(3-Chloro-4-fluorophenyl)-1-(1-(8-fluoro-1-oxo-1,2-dihydroisoquinolin-4-yl)ethyl)-1-isobutylurea], the concentration giving a half-maximal response (EC50) turned out to be 0.012 µM.

Turning to `Cc1cc(NC(=O)N(C)C(C)c2c[nH]c(=O)c3c(F)c(F)ccc23)ccc1F` (single isomer, unassigned) [Compound 440, 1-(1-(7,8-Difluoro-1-oxo-1,2-dihydroisoquinolin-4-yl)ethyl)-3-(4-fluoro-3-methylphenyl)-1-methylurea], the EC50 amounted to 0.54 µM.

Consider `CC(c1c[nH]c(=O)c2cc(F)c(F)cc12)N(C)C(=O)NCc1ccc(F)c(F)c1` (single isomer, unassigned) [Compound 477, 1-(1-(6,7-Difluoro-1-oxo-1,2-dihydroisoquinolin-4-yl)ethyl)-3-(3,4-difluorobenzyl)-1-methylurea], for which the half-maximal effective concentration (EC50) is 10 µM.

Consider `CC(c1cnc(CO)c2ccccc12)N(C)C(=O)Nc1ccc(F)c(Cl)c1` (single isomer, unassigned) [Compound 327, 3-(3-Chloro-4-fluorophenyl)-1-(1-(1-(hydroxymethyl)isoquinolin-4-yl)ethyl)-1-methylurea], for which the EC50 was found to be 0.71 µM.

With `CC(c1cnc(OCc2nc[nH]n2)c2cc(F)c(F)cc12)N(CCCO)C(=O)Nc1ccc(F)c(Cl)c1` (single isomer, unassigned) [Compound 365, 1-(1-(1-((1H-1,2,4-Triazol-3-yl)methoxy)-6,7-difluoroisoquinolin-4-yl)ethyl)-3-(3-chloro-4-fluorophenyl)-1-(3-hydroxypropyl)urea], the EC50 was determined as 0.009 µM.

On to `CC(c1c[nH]c(=O)c2ccccc12)N(Cc1ccncn1)C(=O)Nc1ccc(F)c(Cl)c1` (single isomer, unassigned) [Compound 321, 3-(3-Chloro-4-fluorophenyl)-1-(1-(1-oxo-1,2-dihydroisoquinolin-4-yl)ethyl)-1-(pyrimidin-4-ylmethyl)urea], for which the EC50 was 19 µM.

On to `CC(c1c[nH]c(=O)c2cc(F)c(F)cc12)N(C)C(=O)Nc1ccc(F)c(C(F)F)c1` (single isomer, unassigned) [Compound 501, 1-(1-(6,7-Difluoro-1-oxo-1,2-dihydroisoquinolin-4-yl)ethyl)-3-(3-(difluoromethyl)-4-fluorophenyl)-1-methylurea], for which the half-maximal effective concentration (EC50) is 0.73 µM.

Turning to `CC(c1cn(C)c(=O)c2cc(F)c(F)cc12)N(CCCO)C(=O)Nc1ccc(F)c(Cl)c1` (single isomer, unassigned) [Compound 350, 3-(3-Chloro-4-fluorophenyl)-1-(1-(6,7-difluoro-2-methyl-1-oxo-1,2-dihydroisoquinolin-4-yl)ethyl)-1-(3-hydroxypropyl)urea], the concentration for a half-maximal effect (EC50) is 3.6 µM.

With `CC(c1c[nH]c(=O)c2c(F)c(F)ccc12)N(C)C(=O)Nc1ccc2cc[nH]c2c1` (single isomer, unassigned) [Compound 499, 1-(1-(7,8-Difluoro-1-oxo-1,2-dihydroisoquinolin-4-yl)ethyl)-3-(1H-indol-6-yl)-1-methylurea], the EC50 was determined as 0.3 µM.

The assay is the same for the next values; noted with them: Hepatitis B virus, HepDE19, HepDE19 assay, inhibition of formation of rcDNA; read-out: DE-19bDNA EC50.
On to `CC(c1c[nH]c(=O)c2ccccc12)N(Cc1nnc[nH]1)C(=O)Nc1ccc(F)c(Cl)c1` (single isomer, unassigned) [Compound 268, 1-((1H-1,2,4-Triazol-5-yl)methyl)-3-(3-chloro-4-fluorophenyl)-1-(1-(1-oxo-1,2-dihydroisoquinolin-4-yl)ethyl)urea], for which the EC50 turned out to be 2.6 µM.

`CCN(C(=O)Nc1ccc(F)c(Cl)c1)C(C)c1c[nH]c(=O)c2cnccc12` (racemic) [Compound 102, 3-(3-Chloro-4-fluorophenyl)-1-ethyl-1-(1-(1-oxo-1,2-dihydro-2,7-naphthyridin-4-yl)ethyl)urea]: the EC50 was determined as 0.1 µM.

Take `CC(c1c[nH]c(=O)c2ccccc12)N(CC1CCN(C)CC1)C(=O)Nc1ccc(F)c(Cl)c1` (single isomer, unassigned) [Compound 207, 3-(3-Chloro-4-fluorophenyl)-1-((1-methylpiperidin-4-yl)methyl)-1-(1-(1-oxo-1,2-dihydroisoquinolin-4-yl)ethyl)urea]: the concentration giving a half-maximal response (EC50) amounted to 9 µM.

In the case of `COc1ncc(CNC(=O)Nc2ccc(F)c(Cl)c2)c2ccccc12` [Compound 6, 1-(3-Chloro-4-fluorophenyl)-3-((1-methoxyisoquinolin-4-yl)methyl)urea], the EC50 worked out at 9 µM.

Still in this assay, the particulars now being: Hepatitis B virus, HepDE19, HepDE19 assay, inhibition of formation of relaxed circular DNA (rcDNA), bDNA quantitation; read-out: DE-19bDNA EC50.
In the case of `CC(c1c[nH]c(=O)c2cc(F)c(F)cc12)N(C)C(=O)NCc1ccc(F)cc1` (single isomer, unassigned) [Compound 478, 1-(1-(6,7-Difluoro-1-oxo-1,2-dihydroisoquinolin-4-yl)ethyl)-3-(4-fluorobenzyl)-1-methylurea], the EC50 is 1 µM.

Still in this assay, the particulars now being: Hepatitis B virus, HepDE19, read-out: DE-19bDNA EC50 (μM), HepDE19 assay, inhibition of formation of relaxed circular DNA (rcDNA), bDNA quantitation.
Consider `CC(NC(=O)Nc1ccc(F)c(Cl)c1)c1c[nH]c(=O)c2c(F)c(F)ccc12` (single isomer, unassigned) [Compound 500, 1-(3-Chloro-4-fluorophenyl)-3-(1-(7,8-difluoro-1-oxo-1,2-dihydroisoquinolin-4-yl)ethyl)urea], for which the concentration giving a half-maximal response (EC50) was 3 µM.

Take `CC(NC(=O)Nc1ccc(F)c(Cl)c1)c1c[nH]c(=O)c2cc(F)c(F)cc12` (stereo not shown) [Compound 480, 1-(3-Chloro-4-fluorophenyl)-3-(1-(6,7-difluoro-1-oxo-1,2-dihydroisoquinolin-4-yl)ethyl)urea]: the concentration giving a half-maximal response (EC50) is 0.85 µM.

The same assay, now with this note: read-out: DE-19bDNA EC50; HepDE19 assay, inhibition of formation of rcDNA.
Turning to `CC(c1c[nH]c(=O)c2ccccc12)N(CCCO)C(=O)Nc1ccc(F)c(Cl)c1` (single isomer, unassigned) [Compound 131, 3-(3-Chloro-4-fluorophenyl)-1-(3-hydroxypropyl)-1-(1-(1-oxo-1,2-dihydroisoquinolin-4-yl)ethyl)urea], the EC50 amounted to 0.01 µM.

For the molecule `COCCN(C(=O)Nc1ccc(F)c(Cl)c1)C(C)c1c[nH]c(=O)c2ccccc12` (single isomer, unassigned) [Compound 66, 3-(3-Chloro-4-fluorophenyl)-1-(2-methoxyethyl)-1-(1-(1-oxo-1,2-dihydroisoquinolin-4-yl)ethyl)urea], the EC50 was 0.09 µM.

The same assay, now with this note: read-out: DE-19bDNA EC50; HepDE19 assay, inhibition of formation of relaxed circular DNA (rcDNA), bDNA quantitation.
As to `CC(c1c[nH]c(=O)c2cc(F)c(F)cc12)N(C)C(=O)Nc1cc(Cl)cc(Cl)c1` (single isomer, unassigned) [Compound 417, 3-(3,5-Dichlorophenyl)-1-(1-(6,7-difluoro-1-oxo-1,2-dihydroisoquinolin-4-yl)ethyl)-1-methylurea], the EC50 turned out to be 0.14 µM.

For orientation: EC50 means the concentration needed to bring the measured effect to its halfway point.
